Legend:
[1] = tested on: serum phosphodiesterases; assay: Stability of 2-5A core derivatives to serum phosphodiesterase; format: in vitro ADME, fetal calf; conditions: 300 μM, 37° C.; for Hydrolysis Products: 10% fetal calf serum, 6 h, identified by HPLC; for % Hydrolysis: RPMI-1640 + 10% fetal calf serum, 6 h (A2, A3: 20 min)
Protocol: The stability of authentic 2-5A and phosphorothioate/phosphodiester trimer and tetramer core derivatives (300 μM) was determined by incubation in 200 μL of RPMI-1640 medium supplemented with 10% fetal calf serum in 5% CO2 -in-air at 37° C. Aliquots (30 μL) were removed at time zero and 6 hours. The hydrolysis products were identified by HPLC as described in Kariko et al. , Biochemistry 26: 7127-7135 (1987).
No hydrolysis of the phosphorothioate/phosphodiester trimer core derivatives was observed. However, the phosphorothioate/phosphodiester tetramer core derivatives were hydrolyzed from the 5'- or 2',3'-terminus, depending on the location of the phosphorothioate-substituted internucleotide linkage.

[2] = tested on: RNase L; assay: rRNA cleavage assay in L929 cell extracts (activation of RNase L); format: biochemical; conditions: 1 h at 30° C., > = no activation up to this concentration
Protocol: FIG. 2A represents the results of a ribosomal RNA cleavage assay with 2',5'-phosphorothioate/phosphodiester trimer core 2-5A derivatives. The procedure was performed according to the method of Kariko et al., Biochemistry 26: 7127-7135 (1987). 2-5A oligomer (phosphodiester internucleotide linkage) is also included for comparison. L929 cell extracts were incubated in the absence (lane 1) or presence of p3 A3 at 10^-8 M (lane 2), ARp *ApA at 10^-6 M (lane 3), ASp *ApA at 10^-6 M (lane 4), ApARp *A at 10^-6 M (lane 5), ApASp *A at 10^-6 M (lane 6) or A3 at 10^-6 M (lane 7). The positions of 28S and 18S rRNA are shown; the arrows indicate the positions of the well-characterized specific cleavage products (SCP) of RNase L.
FIG. 2B represents the results of a ribosomal RNA cleavage assay performed according to the method of FIG. 2A with 2',5'-phosphorothioate/phosphodiester trimer 5'-monophosphate derivatives. L929 cell extracts were incubated in the absence (lane 1) or presence of p3 A3 at 2×10^-9 M (lane 2), pA3 at 10^-6 M (lane 3), pARp *ApA at 10^-7 M (lane 4), pASp *ApA at 10^-7 M (lane 5), pApARp *A at 2×10^-9 M (Lane 6), pApASp *A at 10^-7 M (lane 7).
FIG. 3A represents the results of a ribosomal RNA cleavage assay performed according to the method of FIG. 2A with 2',5'-phosphorothioate/phosphodiester tetramer core 2-5A derivatives. 2-5A oligomer (phosphodiester internucleotide linkage) is also included for comparison. L929 cell extracts were incubated in the absence (lane 1) or presence of p3 A4 at 10^-8 M (lane 2), A4 at 10^-5 M (lane 3), ARp *ApApA at 10^-5 M (lane 4), ASp *ApApA at 10^-5 M (lane 5), ApARp *ApA at 10^-5 M (lane 6), ApASp *ApA at 10^-5 M (lane 7), ApApARp *A at 10^-5 M (lane 8) or ApApASp *A at 10^-5 M (lane 9).
FIG. 3B represents the results of a ribosomal RNA cleavage assay performed according to the method of FIG. 2A with 2',5'-phosphorothioate/phosphodiester tetramer 5'-monophosphate derivatives. L929 cell extracts were incubated in the absence (lane 1) or presence of p3 A4 at 10^-8 M (lane 2), pA4 at 10^-6 M (lane 3), pARp *ApApA at 10^-6 M (lane 4), pASp *ApApA at 10^-6 M (lane 5), pApARp *ApA at 10^-8 M (lane 6), pApASp *ApA at 10^-5 M (lane 7), pApApARp *A at 10^-7 M (lane 8) or pApApASp *A at 10^-7 M (lane 9).
Activation of RNase L by the phosphorothioate/phosphodiester trimer and tetramer 2-5A derivatives was also measured in a rRNA cleavage assay using L929 cell extracts according to the method of Kariko et al. (1987), supra, in which extracts of L929 cells were incubated for 1 h at 30° C. in the presence or absence of 2-5A or 2-5A derivative. […] Authentic p3 A3 was active at 1×10^-8 M (FIG. 2A, lane 2). The corresponding 5'-monophosphates, pARp *ApA, pASp *ApA and pApARp *A, activated at 1×10^-7 M, 1×10^-7 M, and 2×10^-9 M, respectively (FIG. 2B, lanes 4-6), as compared with pA3 which was active at 1×10^-6 M (lane 3).

[3] = tested on: HIV-1 strain IIIB; assay: Inhibition of HIV-1-induced syncytia formation (infected centers assay); format: cell-based; conditions: for inhibition of syncytia formation (in words): 3×10^-4 M (adenosine 9×10^-4 M); for inhibition of HIV-1-induced syncytia formation: 3×10^-4 M, PBL infected with HIV-1 IIIB, Sup T1 cells, read at 72 h
From the text: FIG. 5A represents the results of an assay performed according to the method of Henderson et al., Virology 182: 186-198 (1991), indicating the inhibition of HIV-1 (IIIB)-induced syncytia formation by adenosine, 2-5A trimer or tetramer core or 2',5'- phosphorothioate/phosphodiester trimer derivatives: ARp *ApA, ASp *ApA, ApARp *A, ApASp *A, ARp *ApApA, ASp *ApApA, ApARp *ApA, ApASp *ApA, ApApARp *A, ApApASp *A.
FIG. 5B is the results of an assay performed according to the method of FIG. 5A with a 2',5'-phosphorothioate/phosphodiester tetramer derivative of 2-5A core.
The infected centers assay as described by Henderson et al., Virology 182: 186-198 (1991), was used to measure the ability of the phosphorothioate/phosphodiester derivatives of 2-5A trimer and tetramer cores to inhibit HIV-1 induced syncytia formation, an indicator of HIV-1 replication in T cells. Freshly isolated peripheral blood lymphocytes (PBL) were treated with 2-5A or derivatives for 2 h and infected with HIV-1 strain IIIB at a m.o.i. of approximately 0.1. The infected PEL were maintained in RPMI-1640 medium supplemented with 10% (v/v) heat-inactivated fetal calf serum at 37° C. in a humidified 5% CO2 in air atmosphere. After 48 h, the cells were washed twice in Hank's balaned salt solution, serially diluted and seeded into multiple wells of a 96-well microtiter plate. Immediately, 2×10^5 exponentially growing Sup T1 cells were added to each well; Sup T1 cells readily form a syncytium with a cell which is productively infected with HIV-1. The wells were examined daily for the presence of syncytia, using a tissue culture microscope. The first signs of syncytia formation can be seen in 12 h, with some complete syncytia developing by 24 h. Final results were read at 72 h. Each syncytium was counted as a single infected cell. The number of syncytia per seeded cell is determined and expressed as an infected center per infected cell. In the control (no 2-5A derivative added), 100% syncytia formation was equivalent to 12±3 syncytia per 200 HIV-1 infected cells.

[4] = tested on: HIV-1 reverse transcriptase; assay: HIV-1 reverse transcriptase activity in culture supernatant of infected Sup T1 cells; format: cell-based; conditions: 300 μM (adenosine and adenine 900 μM), 6 h pre-treatment, 96 h post-infection; average of triplicates
Protocol: Sup T1 cells were treated with 2-5A or a phosphorothioate/phosphodiester derivative at 300 μM for 6 hours and then infected with HIV-1 at a multiplicity of infection (M.O.I) of approximately 0.1. Adenosine and adenine were tested at 900 μM. At 96 hours post-infection, culture supernatant was removed and HIV-1 RT activity was assayed in triplicate as described by Henderson et al., Virology 182:186-198 (1991). Briefly in this method, 25 μl of culture supernatant was added to a 50 μl cocktail containing 50 mM Tris (pH 8.0), 20 mM dithiothreitol, 10 mM MgCl2, 60 mM NaCl, 0.05 Nonidet p-40, 5 μg/ml oligodeoxythymidylic acid, 10 μg/ml polyriboadenylic acid, 10 μM deoxythymidine triphosphate and 1 mCi [^32 p]thymidine 5'-triphosphate. The mixture was incubated at 37° C. for 2 hours. Fifty microliters of the cocktail were then spotted onto diethylaminoethyl (DEAE) paper, dried, washed with 2× SSC solution (three times for 10 minutes each time) and 95% ethanol (two times for 5 minutes each time), dried and exposed to radiographic film for 18 to 24 hours at -80° C. The filters were cut and final quantitation was determined by scintillation spectrometry.

[5] = tested on: 2-5A synthetase/RNase L pathway; HHV-6; conditions: CFS patients, cited from earlier work

Substance	Hydrolysis Products [1]	% Hydrolysis [1] [%]	concentration at which RNase L is activated to cleave rRNA to SCP [2] [nM]	inhibition of syncytia formation (in words) [3]	inhibition of HIV-1-induced syncytia formation [3] [%]	Percent Inhibition of HIV-1 Reverse Transcriptase [4] [%]	HHV-6 activity following therapy ([5]; p<0.01)	mean basal latent 2-5A synthetase level in PBMC extracts following therapy ([5]; controls 2035±325, P<0.001)	2-5A synthetase/RNase L pathway following therapy ([5]; in temporal association with clinical and neuropsychological improvement)
Adenylyl-(2',5')-(PR)-P-thioadenylyl-(2',5')-adenosine [ApARp *A]	not hydrolyzed	0	1000	most efficient inhibitors of HIV-1 induced syncytia formation	100	31	–	–	–
Adenylyl-(2',5')-(PS)-P-thioadenylyl-(2',5')-adenosine [ApASp *A]	not hydrolyzed	0	> 1000	most efficient inhibitors of HIV-1 induced syncytia formation	78	78	–	–	–
poly (I)-poly (C12 U)	–	–	–	–	–	–	significant decrease in HHV-6 activity	610±220 picomoles 2-5A/mg protein/hour	down regulation of the 2-5A synthetase/RNase L pathway
